According to patent US20190135793A1, “HETEROCYCLIC INHIBITORS OF KDM5 FOR THE TREATMENT OF DISEASE” (Board of Regents, The University of Texas System, priority 2017, published 2019):
Read-outs that look alike come from different tables or passages of the source.

Assays:
KDM5B = target: T1, KDM5B (Homo sapiens, UniProt Q9UGL1); experiment: biochemical
T1 construct: Full length of KDM5B and KDM4C protein were purchased from Active Motif; purchased Active Motif 31832
Method: (§1) KDM4C and KDM5B AlphaScreen Assay Material and Method
(§2) Compounds disclosed herein were (and can be) screened using the following assay.
Peptides used in all experiments were purchased from Anaspe. […] Final concentration of KDM5B and KDM4C used in the assay were 0.5 nM and 0.2 nM. Final concentration of peptides for 5B and 4C used in the assay were 3 nM.
(§3) 4 μL of KDM5B or KDM4C protein were added to 384-well OptiPlate by using multiflow, followed by 4 μl of either buffer or compound. Plates were sealed, spun down and incubated at RT for 15 min. 4 μl of biotinylated peptide was added to the plate, the plate was incubated at room temperature for 25 minutes (KDM5B) and 30 minutes (KDM4C) after sealed and spun down. Streptavidin donor beads and acceptor beads were diluted and mixed in the detection buffer with 7.5 mM EDTA, followed by adding 8 μl of acceptor and donor beads mix to the plate, before the plate was sealed and incubated at room temperature for 3 h or overnight at dark. The plate was read on Envision plate reader (PerkinElmer) using Alphascreen protocol. IC50s were calculated in GraphPad Prism 6.

KDM4C = target: T2, KDM4C (Homo sapiens, UniProt Q9H3R0); experiment: KDM4C AlphaScreen assay; assay type: biochemical; settings: AlphaScreen; full length KDM4C 0.2 nM; biotinylated H3K9Me3 peptide 3 nM; 30 minutes at room temperature
T2 construct: Full length of KDM5B and KDM4C protein were purchased from Active Motif; purchased Active Motif 31858
T2 sequence (Q9H3R0 1-1056): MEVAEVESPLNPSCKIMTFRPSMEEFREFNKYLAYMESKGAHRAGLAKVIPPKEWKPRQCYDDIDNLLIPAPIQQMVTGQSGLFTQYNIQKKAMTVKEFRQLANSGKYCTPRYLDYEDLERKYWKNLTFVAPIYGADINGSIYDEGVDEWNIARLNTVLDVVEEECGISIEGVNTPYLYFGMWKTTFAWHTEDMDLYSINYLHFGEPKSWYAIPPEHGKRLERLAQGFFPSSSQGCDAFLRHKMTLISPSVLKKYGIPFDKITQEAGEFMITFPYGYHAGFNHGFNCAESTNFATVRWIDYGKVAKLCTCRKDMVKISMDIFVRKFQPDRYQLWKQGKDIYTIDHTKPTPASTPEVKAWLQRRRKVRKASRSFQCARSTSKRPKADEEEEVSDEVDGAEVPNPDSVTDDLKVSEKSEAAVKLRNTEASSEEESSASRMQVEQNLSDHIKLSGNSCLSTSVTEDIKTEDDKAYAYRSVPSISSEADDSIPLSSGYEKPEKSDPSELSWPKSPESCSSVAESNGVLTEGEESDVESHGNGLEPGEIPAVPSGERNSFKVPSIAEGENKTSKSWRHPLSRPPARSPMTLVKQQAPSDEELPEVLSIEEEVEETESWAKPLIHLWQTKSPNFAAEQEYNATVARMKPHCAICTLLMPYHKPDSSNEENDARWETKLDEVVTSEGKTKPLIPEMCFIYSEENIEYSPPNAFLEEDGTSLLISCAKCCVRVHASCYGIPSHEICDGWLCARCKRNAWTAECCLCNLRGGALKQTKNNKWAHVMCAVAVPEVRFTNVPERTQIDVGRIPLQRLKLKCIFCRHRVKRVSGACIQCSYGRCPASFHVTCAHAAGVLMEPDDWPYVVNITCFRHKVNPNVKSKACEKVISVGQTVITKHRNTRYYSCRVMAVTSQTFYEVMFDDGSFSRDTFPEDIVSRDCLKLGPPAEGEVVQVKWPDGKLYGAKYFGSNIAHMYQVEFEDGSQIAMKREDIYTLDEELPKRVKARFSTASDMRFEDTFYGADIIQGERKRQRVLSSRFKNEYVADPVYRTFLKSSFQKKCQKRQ
Method: as §1, §2
Peptides used in all experiments were purchased from Anaspe. Full length of KDM5B and KDM4C protein were purchased from Active Motif: KDM5B (cat#31832) and KDM4C (Cat #31858). Final concentration of KDM5B and KDM4C used in the assay were 0.5 nM and 0.2 nM. Final concentration of peptides for 5B and 4C used in the assay were 3 nM.
as §3, with “AlphaScreen assays was conducted as following protocol: buffer used to make compound plate or DMSO is composed of 50 mM HEPES pH 7.4, 0.003% Tween-20; buffer used to dilute enzyme is composed of 50 mM HEPES pH 7.4, 0.003% Tween-20, 0.01% BSA, 500 μM TCEP; and buffer used to dilute the substrate is composed of 50 mM HEPES pH 7.4, 0.003% Tween-20, (NH4)2Fe(SO4)2 15 μM, alpha-ketoglutaric acid 4 μM and L-ascorbic acid 100 μM. 4 μL” for “4 μL”

[1] = AlphaScreen, full length KDM5B 0.5 nM, biotinylated H3K4Me3 peptide 3 nM, 25 minutes at room temperature, read-out: KDM5B (IC50)

T1 sequence (Q9UGL1 whole entry): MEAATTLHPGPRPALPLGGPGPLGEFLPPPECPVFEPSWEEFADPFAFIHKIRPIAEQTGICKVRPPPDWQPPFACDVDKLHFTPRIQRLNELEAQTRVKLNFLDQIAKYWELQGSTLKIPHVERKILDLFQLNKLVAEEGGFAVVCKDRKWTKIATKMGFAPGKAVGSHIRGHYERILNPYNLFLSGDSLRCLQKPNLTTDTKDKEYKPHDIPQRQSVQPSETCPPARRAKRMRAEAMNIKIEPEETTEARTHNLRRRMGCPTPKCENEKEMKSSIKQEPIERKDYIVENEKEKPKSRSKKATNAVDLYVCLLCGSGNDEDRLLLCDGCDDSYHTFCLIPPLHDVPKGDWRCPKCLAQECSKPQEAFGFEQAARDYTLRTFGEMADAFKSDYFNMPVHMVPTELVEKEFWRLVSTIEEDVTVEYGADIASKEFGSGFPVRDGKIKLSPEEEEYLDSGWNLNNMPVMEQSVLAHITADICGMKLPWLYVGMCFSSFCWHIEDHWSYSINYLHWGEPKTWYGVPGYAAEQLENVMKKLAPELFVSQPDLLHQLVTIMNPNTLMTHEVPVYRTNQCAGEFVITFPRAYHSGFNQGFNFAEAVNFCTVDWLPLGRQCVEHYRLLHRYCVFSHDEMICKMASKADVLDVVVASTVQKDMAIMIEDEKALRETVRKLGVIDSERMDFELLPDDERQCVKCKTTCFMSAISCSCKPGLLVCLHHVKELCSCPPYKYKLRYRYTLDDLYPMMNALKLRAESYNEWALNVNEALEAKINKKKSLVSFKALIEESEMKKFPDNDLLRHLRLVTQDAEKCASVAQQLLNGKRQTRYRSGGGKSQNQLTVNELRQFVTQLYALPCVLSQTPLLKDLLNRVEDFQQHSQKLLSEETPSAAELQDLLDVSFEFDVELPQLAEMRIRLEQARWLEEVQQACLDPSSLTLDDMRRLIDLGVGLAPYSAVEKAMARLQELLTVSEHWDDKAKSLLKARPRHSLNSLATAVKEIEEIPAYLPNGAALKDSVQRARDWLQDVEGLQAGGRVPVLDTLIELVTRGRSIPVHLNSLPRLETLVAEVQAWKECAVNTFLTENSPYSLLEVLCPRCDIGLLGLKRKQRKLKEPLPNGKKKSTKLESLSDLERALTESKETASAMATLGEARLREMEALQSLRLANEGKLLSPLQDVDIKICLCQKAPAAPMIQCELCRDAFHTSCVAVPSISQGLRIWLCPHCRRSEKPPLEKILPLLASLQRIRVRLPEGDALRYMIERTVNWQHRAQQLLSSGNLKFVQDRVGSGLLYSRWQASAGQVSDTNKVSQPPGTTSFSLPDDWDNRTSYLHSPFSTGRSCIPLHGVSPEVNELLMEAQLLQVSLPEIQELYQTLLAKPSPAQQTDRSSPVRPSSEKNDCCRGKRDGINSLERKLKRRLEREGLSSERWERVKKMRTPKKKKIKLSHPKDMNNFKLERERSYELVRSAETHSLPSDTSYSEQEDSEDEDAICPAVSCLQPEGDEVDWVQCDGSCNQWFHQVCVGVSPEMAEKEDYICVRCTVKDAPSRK

IC50 (KDM5B; [1]) [nM] | IC50 (KDM4C) [nM] | IC50 (KDM5B) [nM] | Structure (SMILES)
13 | 1260 | – | CC(C)c1c(O)nc(-n2ccnc2)nc1-c1ccc(CNS(C)(=O)=O)cc1 [Example 48, N-({4-[6-Hydroxy-2-(1H-imidazol-1-yl)-5-(propan-2-yl)pyrimidin-4-yl]phenyl}-methyl)methanesulfonamide]
– | 716 | 13 | CC(C)c1c(O)nc(-n2ccnc2)nc1-c1cnn(C2CCC2)c1 [Example 49, 6-(1-Cyclobutyl-1H-pyrazol-4-yl)-2-(1H 1H-imidazol-1-yl)-5-(propan-2-yl)pyrimidin-4-ol]
– | 1960 | 14 | COCCn1cc(-c2nc(-n3ccnc3)nc(O)c2C(C)C)cn1 [Example 51, 2-(1H-Imidazol-1-yl)-6-[1-(2-methoxyethyl)-1H-pyrazol-4-yl]-5-(propan-2-yl)pyrimidin-4-ol]
– | 840 | 14 | CC(C)c1c(O)nc(-n2ccnc2)nc1-c1cnn(CC2CC2)c1 [Example 52, 6-[1-(Cyclopropylmethyl)-1H-pyrazol-4-yl]-2-(1H-imidazol-1-yl)-5-(propan-2-yl)pyrimidin-4-ol]
– | 1740 | 15 | CC(C)c1c(O)nc(-n2ccnc2)nc1-c1cnn(Cc2ccncc2)c1 [Example 53, 2-(1H-Imidazol-1-yl)-5-(propan-2-yl)-6-[1-(pyridin-4-ylmethyl)-1H-pyrazol-4-yl]-pyrimidin-4-ol]
– | 896 | 15 | Cc1ccc(-c2nc(-n3ccnc3)nc(O)c2C(C)C)cc1N [Example 54, 6-(3-Amino-4-methylphenyl)-2-(1H-imidazol-1-yl)-5-(propan-2-yl)pyrimidin-4-ol]
– | 1340 | 15 | CC(C)c1c(O)nc(-n2ccnc2)nc1-c1cnn(C)c1 [Example 55, 2-(1H-Imidazol-1-yl)-6-(1-methyl-1H-pyrazol-4-yl)-5-(propan-2-yl)pyrimidin-4-ol]
– | 996 | 15 | CCCn1cc(-c2nc(-n3ccnc3)nc(O)c2C(C)C)cn1 [Example 56, 2-(1H-Imidazol-1-yl)-5-(propan-2-yl)-6-(1-propyl-1H-pyrazol-4-yl)pyrimidin-4-ol]
– | 2030 | 16 | CNC(=O)c1cccc(-c2nc(-n3ccnc3)nc(O)c2C(C)C)c1 [Example 57, 3-[6-Hydroxy-2-(1H-imidazol-1-yl)-5-(propan-2-yl)pyrimidin-4-yl]-N-methyl-benzamide]
– | 1220 | 16 | CC(C)c1c(O)nc(-n2ccnc2)nc1-c1ccc(CO)cc1 [Example 58, 6-[4-(Hydroxymethyl)-phenyl]-2-(1H-imidazol-1-yl)-5-(propan-2-yl)pyrimidin-4-ol]
– | 746 | 16 | CC(C)c1c(O)nc(-n2ccnc2)nc1-c1cnn(C2CCOCC2)c1 [Example 59, 2-(1H-Imidazol-1-yl)-6-[1-(oxan-4-yl)-1H-pyrazol-4-yl]-5-(propan-2-yl)pyrimidin-4-ol]
17 | 1660 | – | Cc1n[nH]cc1-c1nc(-n2ccnc2)nc(O)c1C(C)C [Example 60, 2-(1H-Imidazol-1-yl)-6-(5-methyl-1H-pyrazol-4-yl)-5-(propan-2-yl)pyrimidin-4-ol]
17 | 1480 | – | CC(C)c1c(O)nc(-n2ccnc2)nc1-c1ccc(S(=O)(=O)N(C)C)cc1 [Example 61, 4-[6-Hydroxy-2-(1H-imidazol-1-yl)-5-(propan-2-yl)pyrimidin-4-yl]-N,N-dimethylbenzene-1-sulfonamide]
– | 1540 | 18 | CC(C)c1c(O)nc(-n2ccnc2)nc1-c1cnn(Cc2ccccc2)c1 [Example 63, 6-(1-Benzyl-1H-pyrazol-4-yl)-2-(1H-imidazol-1-yl)-5-(propan-2-yl)pyrimidin-4-ol]
19 | 2010 | – | CC(C)c1c(O)nc(-n2ccnc2)nc1-c1cnn(Cc2ccccn2)c1 [Example 64, 2-(1H-Imidazol-1-yl)-5-(propan-2-yl)-6-[1-(pyridin-2-ylmethyl)-1H-pyrazol-4-yl]-pyrimidin-4-ol]
– | 937 | 19 | CC(C)Cn1cc(-c2nc(-n3ccnc3)nc(O)c2C(C)C)cn1 [Example 65, 2-(1H-Imidazol-1-yl)-6-[1-(2-methylpropyl)-1H-pyrazol-4-yl]-5-(propan-2-yl)pyrimidin-4-ol]
– | 1180 | 19 | CCn1cc(-c2nc(-n3ccnc3)nc(O)c2C(C)C)cn1 [Example 66, 6-(1-Ethyl-1H-pyrazol-4-yl)-2-(1H-imidazol-1-yl)-5-(propan-2-yl)pyrimidin-4-ol]
– | 1340 | 19 | CC(C)c1c(O)nc(-n2ccnc2)nc1-c1cnn(C2CCCC2)c1 [Example 67, 6-(1-Cyclopentyl-1H-pyrazol-4-yl)-2-(1H-imidazol-1-yl)-5-(propan-2-yl)pyrimidin-4-ol]
– | 2450 | 21 | CC(C)c1c(O)nc(-n2ccnc2)nc1-c1cnn(CCN2CCOCC2)c1 [Example 68, 2-(1H-Imidazol-1-yl)-6-{1-[2-(morpholin-4-yl)ethyl]-1H-pyrazol-4-yl}-5-(propan-2-yl)pyrimidin-4-ol]
– | 2060 | 22 | CC(C)c1c(O)nc(-n2ccnc2)nc1-c1ccc(S(C)(=O)=O)cc1 [Example 69, 2-(1H-Imidazol-1-yl)-6-(4-methanesulfonylphenyl)-5-(propan-2-yl)pyrimidin-4-ol]
– | 2660 | 22 | CC(C)c1c(O)nc(-n2ccnc2)nc1-c1cccnc1 [Example 70, 2-(1H-Imidazol-1-yl)-5-(propan-2-yl)-6-(pyridin-3-yl)pyrimidin-4-ol]
– | 1560 | 24 | CC(C)c1c(O)nc(-n2ccnc2)nc1-c1cnn(-c2ccccc2)c1 [Example 71, 2-(1H-Imidazol-1-yl)-6-(1-phenyl-1H-pyrazol-4-yl)-5-(propan-2-yl)pyrimidin-4-ol]
24 | 4470 | – | CC(C)c1c(O)nc(-n2ccnc2)nc1-c1cccc(S(C)(=O)=O)c1 [Example 72, 2-(1H-Imidazol-1-yl)-6-(3-methanesulfonylphenyl)-5-(propan-2-yl)pyrimidin-4-ol]
– | 1350 | 25 | CC(C)CCn1cc(-c2nc(-n3ccnc3)nc(O)c2C(C)C)cn1 [Example 73, 2-(1H-Imidazol-1-yl)-6-[1-(3-methylbutyl)-1H-pyrazol-4-yl]-5-(propan-2-yl)pyrimidin-4-ol]
